How the values were obtained:
[1] = Potency by HPLC and compatibility on storage of granulations and drug substances; type: physicochemical; details: for Potency 2 Weeks Extreme Conditions, NSAID: 2 weeks at 40° C. with 75% to 85% relative humidity; for Potency 4 Weeks Extreme Conditions, NSAID: 4 weeks at 40° C. with 75% to 85% relative humidity; for Potency 19 Days RT, NSAID: 19 days at room temperature; for Potency 33 Days RT, NSAID: 33 days at room temperature
Experimental: In this example, granulations of a PPI and various NSAIDs were prepared to determine the compatibility of these substances with each other in a granulated form.
The potency (mg/g) of each drug substance in each granulation was determined by HPLC.
Granulations A, C, and D, as well as naproxen and piroxicam drag substances were weighed and separately placed in scintillation vials and stored at room temperature (RT) and at 40° C. with 75% to 85% relative humidity (“Extreme Conditions”). Granulations A, C, and D, as well as the naproxen and piroxicam, were tested for potency of the lansoprazole and NSAID after 19 and 33 days at the room temperature conditions and after two and four weeks under the Extreme Conditions.

[2] = PPI/NSAID drug substance compatibility: storage of lansoprazole/NSAID mixtures with and without buffer; type: physicochemical
Experimental: Various NSAIDs were combined with lansoprazole with and without a buffer to determine the compatibility of the components. The various mixtures were placed at room temperature and 40° C. with 75% relative humidity. The samples were tested initially and after two weeks at the storage conditions above. The results are reported in Table 1 below as a percent of the theoretical amount of a given component.

SMILES | Potency 2 Weeks Extreme Conditions, NSAID [1] | Potency 4 Weeks Extreme Conditions, NSAID [1] | Potency 19 Days RT, NSAID [1] | Potency 33 Days RT, NSAID [1] | % of Theory, 40° C. 75% humidity, lanso ([2]; lansoprazole recovered after two weeks at 40° C. with 75% relative humidity) | % of Theory, Room Temp., lanso ([2]; lansoprazole recovered after two weeks at room temperature) | % of Theory, Initial, lanso ([2]; lansoprazole recovered, initial)
COc1ccc2cc([C@H](C)C(=O)O)ccc2c1 [Naproxen, naproxen] | NA/996.7 mg/g | NA/1000.9 mg/g | NA/997.2 mg/g | NA/998.2 mg/g |  |  | 
CN1C(C(=O)Nc2ccccn2)=C(O)c2ccccc2S1(=O)=O [Piroxicam, piroxicam] | NA/942.2 mg/g | NA/1005.5 mg/g | NA/1027.1 mg/g | NA/998.5 mg/g |  |  | 
Cc1c(OCC(F)(F)F)ccnc1C[S+]([O-])c1nc2ccccc2[nH]1 (centres unmarked) [Lansoprazole, lansoprazole] |  |  |  |  | 99.1/NA % | 99.1/NA % | 100.8/NA %
